The results in this text go back to ChEMBL document CHEMBL1138233, “New iantherans from the marine sponge Ianthella quadrangulata: novel agonists of the P2Y(11) receptor” (J Med Chem, 2007).

SMILES strings stand for the structures. The source made the active and inactive calls. The calls are words filed in the database; no cut-off is given here. Where only a bound is given, the exact number is not on record here.

Data set [1] can be described thus: Toxicity against 1321N1 cells expressing P2Y2 receptor at 1 to 10 uM. It is filed as cell-based. The note with it: human, 1321-n1, 10 µM.
Data set [2] can be described thus: Toxicity against 1321N1 cells expressing P2Y11 receptor at 1 to 10 uM. It is filed as cell-based. Conditions: human, 1321-n1, 10 µM.
The target of data set [3] is T1, P2Y purinoceptor 2 (Homo sapiens, UniProt P41231). Briefly: Agonist activity at P2Y2 receptor expressed in 1321N1 cells assessed as cytosolic calcium level at 10 uM relative to GTPgammaS control. It is filed as functional, cell-based.
A short description of data set [4]: Toxicity against 1321N1 cells expressing P2Y1 receptor at 1 to 10 uM. The note with it: human, 1321-n1, 10 µM. In kind it is cell-based.
For data set [5], the target named is P2Y purinoceptor 1 (Homo sapiens) (UniProt P47900). The experiment in a line: Agonist activity at P2Y1 receptor expressed in 1321N1 cells assessed as cytosolic calcium level at 1 uM relative to GTPgammaS control. In kind it is functional, cell-based.
Another data set concerns the target T2, P2Y purinoceptor 11 (Homo sapiens, UniProt Q96G91).
T2 sequence (Q96G91 whole entry): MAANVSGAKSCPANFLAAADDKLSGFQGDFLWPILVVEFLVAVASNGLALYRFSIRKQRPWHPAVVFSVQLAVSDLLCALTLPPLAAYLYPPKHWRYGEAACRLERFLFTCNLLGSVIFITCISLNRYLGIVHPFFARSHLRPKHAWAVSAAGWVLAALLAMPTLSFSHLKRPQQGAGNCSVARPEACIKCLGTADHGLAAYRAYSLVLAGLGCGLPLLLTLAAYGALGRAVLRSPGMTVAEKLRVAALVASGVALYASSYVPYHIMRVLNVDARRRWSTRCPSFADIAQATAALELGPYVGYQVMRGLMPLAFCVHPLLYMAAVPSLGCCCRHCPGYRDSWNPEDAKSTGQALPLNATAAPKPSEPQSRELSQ
Briefly: Agonist activity at P2Y11 receptor expressed in 1321N1 cells assessed as cytosolic calcium level. It is filed as functional, cell-based.

Data set [6] deals with T1, P2Y purinoceptor 2. The experiment in a line: Agonist activity at P2Y2 receptor expressed in 1321N1 cells assessed as cytosolic calcium level at 1 uM relative to GTPgammaS control. It is filed as functional, cell-based.
The target in data set [7] is P2Y purinoceptor 1 (Homo sapiens) (UniProt P47900). Briefly: Agonist activity at P2Y1 receptor expressed in 1321N1 cells assessed as cytosolic calcium level at 10 uM relative to GTPgammaS control. In kind it is functional, cell-based.
Data set [8] deals with T3, P2Y purinoceptor 11 (Homo sapiens) (UniProt Q96G91).
T3 sequence (whole entry): T2 sequence (Q96G91 whole entry)
The experiment in a line: Agonist activity at P2Y11 receptor expressed in 1321N1 cells assessed as cytosolic calcium level at 10 uM relative to GTPgammaS control. It is filed as functional, cell-based.

Data set [9] addresses T3, P2Y purinoceptor 11 (Homo sapiens). Briefly: Agonist activity at P2Y11 receptor expressed in 1321N1 cells assessed as cytosolic calcium level at 1 uM relative to GTPgammaS control. It is filed as functional, cell-based.
Data set [10] shares this target. The experiment in a line: Agonist activity at P2Y11 receptor expressed in 1321N1 cells assessed as calcium mobilization in presence of 10 uM NF340 at 1 uM. It is filed as functional, cell-based. A general note: Calcium flux is commonly read through the fluorescence of an indicator in the cells.
Data set [11] shares this target. Briefly: Agonist activity at P2Y11 receptor expressed in 1321N1 cells assessed as calcium mobilization in presence of 10 uM NF340 at 3.6 uM. In kind it is functional, cell-based.
For data set [12], the target named is T1, P2Y purinoceptor 2. Briefly: Agonist activity at P2Y2 receptor expressed in 1321N1 cells assessed as cytosolic calcium level. It is filed as functional, cell-based.

P2Y purinoceptor 1 (Homo sapiens), sequence (P47900 whole entry): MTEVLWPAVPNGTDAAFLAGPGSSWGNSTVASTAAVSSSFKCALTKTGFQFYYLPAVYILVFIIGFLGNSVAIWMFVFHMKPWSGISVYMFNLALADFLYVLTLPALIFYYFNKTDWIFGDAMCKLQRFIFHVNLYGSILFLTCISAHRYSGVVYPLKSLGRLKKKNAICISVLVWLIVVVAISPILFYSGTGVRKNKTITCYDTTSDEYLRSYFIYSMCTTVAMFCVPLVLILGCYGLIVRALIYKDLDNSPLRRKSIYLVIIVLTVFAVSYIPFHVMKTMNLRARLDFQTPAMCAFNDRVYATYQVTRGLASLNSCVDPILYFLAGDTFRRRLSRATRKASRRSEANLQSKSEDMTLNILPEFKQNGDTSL
T1 sequence (P41231 whole entry): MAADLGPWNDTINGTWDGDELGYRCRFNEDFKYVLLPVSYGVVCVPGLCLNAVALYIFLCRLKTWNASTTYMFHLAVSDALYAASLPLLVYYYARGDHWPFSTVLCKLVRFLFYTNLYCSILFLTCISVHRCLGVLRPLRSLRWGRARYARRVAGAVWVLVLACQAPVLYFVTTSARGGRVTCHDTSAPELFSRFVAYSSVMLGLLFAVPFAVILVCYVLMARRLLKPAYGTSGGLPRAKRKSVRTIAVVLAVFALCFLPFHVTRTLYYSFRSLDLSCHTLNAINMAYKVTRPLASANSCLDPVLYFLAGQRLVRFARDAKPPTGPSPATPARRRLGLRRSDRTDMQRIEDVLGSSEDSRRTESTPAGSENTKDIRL

The term EC50 denotes the midpoint of the concentration-response curve. Take `O=C(O)c1c(-c2ccc(O)c(Br)c2)oc2c(Br)cc(/C=C(OS(=O)(=O)[O-])/C(=C/c3cc(Br)c4oc(-c5ccc(O)c(Br)c5)cc4c3)OS(=O)(=O)[O-])cc12.[Na+].[Na+]` [8-CARBOXY-ISO-IANTHERAN A]: the Activity entry is “Non-toxic” in data set [1]; “Non-toxic” in data set [2]; under 5% on P2Y purinoceptor 2 [3]; “Non-toxic” in data set [4]; under 5% in [5]; under 5% on P2Y purinoceptor 2 [6]. Moreover, the Activity was under 5% in [7], 114% in data set [8] and 94.6% in data set [9]. Besides, the EC50 on P2Y purinoceptor 11 was 479 nM. Further, the outcome in [10] was inactive.

Turning to `COc1c(Br)cc(CC(=O)O)cc1Br`, the Activity entry in data set [1] was “Non-toxic”; in [2], “Non-toxic”; on P2Y purinoceptor 2 [3], under 37.5%; in data set [4], “Non-toxic”; in [7], under 37.5%; in [8], under 37.5%.

In the case of `O=S(=O)([O-])OC(=C\c1cc(Br)c2oc(-c3ccc(O)c(Br)c3)cc2c1)/C(=C/c1cc(Br)c2oc(-c3ccc(O)c(Br)c3)cc2c1)OS(=O)(=O)[O-].[Na+].[Na+]` [ISO-IANTHERAN A], the Activity entry in data set [1], in [2] and in data set [4] was “Non-toxic” throughout. Further, the outcome (at P2Y purinoceptor 2 [3]; in data set [7]; in data set [8]; in data set [9]) was Active. The EC50 at P2Y purinoceptor 11 was 1290 nM. Moreover, in data set [11], the outcome was inactive.

Consider `O=c1ccn([C@@H]2O[C@H](COP(=O)(O)OP(=O)(O)OP(=O)(O)O)[C@@H](O)[C@H]2O)c(=O)[nH]1` [URIDINE TRIPHOSPHATE], for which the EC50 on P2Y purinoceptor 2 [12] was 110 nM.

On to `Nc1ncnc2c1ncn2[C@@H]1O[C@H](CO[P@](=O)(O)O[P@](=O)(O)O[P@@](=O)(O)S)[C@@H](O)[C@H]1O`, for which the EC50 at P2Y purinoceptor 11 is 63.1 nM.

In the case of `COc1c(Br)cc(/C=C(\OS(=O)(=O)[O-])C(=O)O)cc1Br.[Na+]`, the Activity entry in data set [1] was “Non-toxic”; in data set [2], “Non-toxic”; on P2Y purinoceptor 2 [3] it was under 37.5%; in data set [4] it was “Non-toxic”; in [7], under 37.5%; in data set [8], under 37.5%.
